Assay results published in patent publication EP0005422A2, “Derivatives of omega-dialkylalkanoic acids, processes for their preparation and their therapeutical use” (SANOFI S.A., priority 1978, dated 1979).
≈ marks a conversion by molar mass, not a printed value. Read-outs that look alike come from different tables or passages of the source.

Legend:
[1] = system: Crise à l'acide β-mercaptopropionique; experiment: β-mercaptopropionic acid seizure test (Crise à l'acide β-mercaptopropionique); assay type: in vivo, souris; conditions: for ED50: Mus musculus, po
Experimental: L'acide p-mercaptopropionique est un inhibiteur de la glutamate décarboxylase (G.A.D.), enzyme qui catalyse la transformation du glutamate en acide y-aminobutyrique (GABA). Son action se traduit donc par un abaissement du taux de GABA et la survenue de crises généralisées tonico-cloniques 3 à 4 minutes après son administration.
L'acide β-mercaptopropionique a été administré à des lots de 10 souris mâles, par voie intrapéritonéale, à la dose de 70 mg/kg, 30 minutes après l'administration orale d'une dose du composé à étudier. On note le pourcentage des animaux protégés contre la crise tonique 15 minutes après l'administration de l'acide β-mercaptopropionique.

Crise pentétrazolique = experiment: Pentetrazol seizure test (Crise pentétrazolique); assay type: in vivo, souris; conditions: mice, 15 minutes after administration of pentetrazol; for ED50: Mus musculus, po, 0.25 h, read-out: DE50 (the source's name)
Experimental: Ce test, pratiqué sur souris par voie orale, est identique à celui décrit dans le brevet français N° 2.276.036.
Les DE50 obtenues 15 minutes après l'administration du pentécra- zol sont reprises ci-dessous comparativement aux résultats trouvés pour les sels de sodium correspondants : [drawing 12]

[2] = Acute toxicity (toxicité aiguë); assay type: in vivo; conditions: mouse, in vivo, po, 1000 mg/kg, mice, 1000 mg/kg oral; read-out: mortalité
Experimental: (§1) Des tests de toxicité aiguë pratiqués sur souris ont montré qu'à la dose de 1000 mg/kg, par voie orale, la mortalité provoquée par le n-propyl-3 hexanoate de magnésium et le n-propyl-3 hexanamide est respectivement de 40% et 0%.
(§2) A titre de comparaison, le n-propyl-3 hexanoate de sodium à la dose de 1000 mg/kg par voie orale provoque déjà 80% de mortalité.

Anoxie par confinement = experiment: Anoxia by confinement (Anoxie par confinement); assay type: in vivo, souris; conditions: for % d'augmentation du temps de survie: male mice, 75 mg/kg intraperitoneal, versus controls
Experimental: Des lots de 15 souris mâles sont traités au moyen d'une dose de composé à étudier puis chaque animal est placé dans une enceinte hermétiquement close de 200 cm^3. L'animal est considéré comme mort au moment de l'arrêt respiratoire.
On détermine alors le % d'augmentation du temps de survie par rapport à des témoins.
On trouvera ci-dessous des résultats obtenus avec des composés de l'invention à la dose de 75 mg/kg par voie intrapéritonéale : [drawing 14]

[3] = Solubility and pH of aqueous solution; assay type: physicochemical; conditions: for solubility: water
souris = experiment: Acute toxicity (toxicité aiguë); assay type: in vivo; conditions: mice, 1000 mg/kg oral
Experimental: as §1, §2

[4] = system: activité anticonvulsivante; experiment: Pharmacological studies of anticonvulsant activity (method not specified); assay type: in vivo; conditions: at identical doses, compared with di-n-propylacétate de sodium
[5] = male mice, compound oral 30 minutes before β-mercaptopropionic acid 70 mg/kg i.p., protection against tonic seizure 15 minutes after, read-out: DE50 (the source's name)
[6] = male mice, compound oral 30 minutes before β-mercaptopropionic acid 70 mg/kg i.p., protection against tonic seizure 15 minutes after

SMILES | ED50 [1, 5] [mg/kg] | ED50 (Crise pentétrazolique) [mg/kg] | % d'augmentation du temps de survie (Anoxie par confinement) [%] | also measured
CCCC(CCC)CC(N)=O [Y=NH2, n=0, n-propyl-3 hexanamide] | 106 | 65 |  | mortality [2]: 0%
CCCC(CCC)CCC(N)=O [Y=NH2, n=1, n-propyl-4 heptanamide] |  | 104 | 15 | 
CCCC(CCC)CCCC(N)=O [Y=NH2, n=2, n-propyl-5 octanamide] | 129 | 121 | 64 | 
CCCC(CCC)CCC(=O)O [Y=OCa1/2, n=1, n-propyl-4 heptanoate de calcium] |  |  | 27 | DE50 [1, 6]: 101 mg/kg; solubility ([3]; dissolves very slowly, read-out: se dissout dans l'eau): 1000 mg/mL
CCCC(CCC)CC(=O)O [Y=OMg1/2, n=0, n-propyl-3 hexanoate de magnésium] |  |  | 36 | DE50 [1, 6]: 145 mg/kg; mortalité (souris): 40%; pH ([3]; 2% aqueous solution, slightly opalescent): 9,4
CCCC(CCC)CCCC(=O)O [Y=OMg1/2, n=2, n-Propyl-5 octanoate de magnésium] |  |  | 56 | DE50 [1, 6]: 124 mg/kg; DE50 (Crise pentétrazolique; oral route, 15 min): 152 mg/kg; solubilité dans les solvants organiques ([3]; organic solvents): Bonne solubilité; solubility ([3]; read-out: Solubilité dans l'eau): 1 mg/mL (≈ 5.37 mM)
CCCC(CCC)CC(=O)O [Y=ONa, n=0, n-propyl-3 hexanoate de sodium, reference compound] | 168 | 95 |  | mortalité (souris): 80%
CCCC(CCC)CCC(=O)O [Y=ONa, n=1, reference compound] | 124 | 119 |  | 
CCCC(CCC)CCCC(=O)O [Y=ONa, n=2, reference compound] |  | 172 |  | 
CCCC(CCC)C(=O)O [di-n-propylacétate de sodium, reference compound] |  |  |  | ED50 ([1]; read-out: DE50): 175 mg/kg; augmentation du temps de survie (Anoxie par confinement; 200 mg/kg intraperitoneal, comparative test): 32%
CCCC(CCC)C(=O)O [sel de calcium] |  |  |  | potentialités anticonvulsivantes [4]: sensiblement équivalentes à celles du di-n-propylacétate de sodium et même légèrement inférieures
